These results are taken from patent US20260265771A1, “METHODS OF INCREASING THE REGENERATION EFFICIENCY IN PLANTS” (Institute of Genetics and Developmental Biology Chinese …, priority 2022, published 2026).

Assay [1] concerns hypocotyl explants of cotton. In words: Callus formation of cotton hypocotyl explants on CIM. The class given is cell-based. How it is done:
(a) photos of cotton grown in the presence of 0.1 nM, 1 nM 10 nM, 100 nM 500 nM GaREF1 or absence of GaREF1 (mock), (b) Hypocotyl explants of cotton were cultured on callus-inducing medium (CIM) containing indicated concentrations of GaREF1, and callus phenotype was scored at 14 days after incubation. Box plots represent the distribution of projected callus area. The projected area of callus was quantified by Image J. Individual values (black dots) are shown and error bars represent SD from three independent experiments. ***P<0.001, **P<0.01, *P<0.05 (Student's t-test).
The cotton SIPEP (REF1) orthologue (GaREF1) was investigated to establish its effect on cotton regenerative capacity.

The next assay relates to pepper roots. Briefly: Root hair formation in pepper. The class given is in vivo, Capsicum annuum. To be noted: 0, 10 and 100 nM CaREF1. The text has this: The pepper SIPEP (REF1) orthologue (CaREF1) was investigated to establish whether CaREF1 can increase the regenerative capacity of pepper (Capsicum annuum).
In assay [2] the test system is pepper cotyledon explants. Briefly: Callus formation of pepper cotyledon explants on CIM. The class given is cell-based, Capsicum annuum. Particulars: CIM, 0, 1 and 10 nM CaREF1. The procedure:
Cotyledon explants were cultured on callus-inducing medium (CIM) containing indicated concentrations of CaREF1. (a) photos of cotelydon explants grown with 0 nM, 1 nM and 10 nM CaREF1. (b) relative callus area of cotelydon explants grown with 0 nM, 1 nM and 10 nM CaREF1. Box plots represent the distribution of projected callus area. The projected area of callus was quantified by Image J. Individual values (black dots) are shown and error bars represent SD from three independent experiments. **P<0.01, *P<0.05 (Student's t-test).

The subject of assay [3] is wild allotetraploid rice (L-04). In words: Growth (primary root length) of wild allotetraploid rice. The class given is in vivo. Particulars: L-04, 10 nM OsREF1 vs mock. How it is done:
L-04 rice was grown in the presence of 10 nM OsREF1 or in the absence of OsREF1 (mock). (a) photos of L-04 rice grown in presence the of 10 nM OsREF1 or absence of OsREF1 (mock). (b) primary root length of L-04 rice grown in the presence of 10 nM OsREF1 or absence of OsREF1 (mock).

The test system of assay [4] is ZH11, Nipponbare and 9311 rice. Briefly: Shoot regeneration of rice on SIM. The class given is cell-based, Oryza sativa. Particulars: for shoot regeneration: SIM, 10 nM; for shoot regeneration capacity, increase: 10 nM OsREF1 vs absence. The procedure: ZH11 was cultured on SIM containing indicated concentrations of OsREF1. (a) photos of ZH11 grown in presence of 0 nM and 10 nM OsREF1. (b) shoot regeneration capacity of ZH11 grown in with either 0 nM or 10 nM OsREF1.
Nipponbare was cultured on SIM containing indicated concentrations of OsREF1. (a) photos of nipponbare grown in presence of 0 nM and 10 nM OsREF1. (b) shoot regeneration capacity of nipponbare grown in with either 0 nM or 10 nM OsREF1.
9311 rice was cultured on SIM containing indicated concentrations of OsREF1. (a) photos of 9311 rice grown in presence of 0 nM and 10 nM OsREF1. (b) shoot regeneration capacity of 9311 rice grown in with either 0 nM or 10 nM OsREF1.
Shoot regeneration was investigated in ZH11 and Nipponbare Japonica rice as well as 9311 indica rice. OsREF1 promoted shoot generation in all three of these rice varieties.

The test system of assay [5] is wild allotetraploid rice (L-04). Briefly: Shoot regeneration of wild allotetraploid rice. The class given is cell-based. The procedure: (a) images of L-04 rice grown in the presence of 10 nM OsREF1 or absence of OsREF1 (mock). (b) regeneration frequency of L-04 rice grown in the presence of 10 nM OsREF1 or absence of OsREF1.
The test system of the next assay is mature seeds of ZH11. In words: Callus formation of rice mature seeds on CIM. The class given is cell-based, Oryza sativa. To be noted: for callus formation capacity, increase: 20 days. How it is done:
Mature seeds of ZH11 were cultured on CIM containing indicated concentrations of OsREF1. (a) photos of ZH11 grown in presence of 1 nM and 10 nM OsREF1 or in the absence of OsREF1 (mock). (b) callus phenotype was scored 20 days after incubation on CIM. Callus formation capacity was represented by the percentage of mature seed explants with regenerated embryonic calli. Data are mean±SD of three independent experiments.
Mature seeds of ZH11 were cultured on CIM containing indicated concentrations of OsREF1 (1 nM and 10 nM). As shown in FIG. 27A calluses formed that were larger in the presence of OsREF1 than in the absence of OsREF1.

Assay [6] relates to seeds of wild allotetraploid rice L-04. Briefly: Callus formation of wild allotetraploid rice seeds on CIM. The class given is cell-based. To be noted: for callus formation capacity, increase: vs absence. How it is done:
L-04 rice was grown in the presence of 10 nM or 1 nM OsREF1 or in the absence of OsREF1 (mock). (a) photos of L-04 rice grown in presence the of 10 nM, 1 nM OsREF1 or absence of OsREF1 (mock). (b) callus formation capacity of L-04 rice grown in the presence of 10 nM, 1 nM OsREF1 or absence of OsREF1 (mock).
Seeds of wild allotetraploid rice L-04 were cultured on CIM containing indicated concentrations of OsREF1 (1 nM and 10 nM) for 20 days.

The subject of assay [7] is leaves of peach cultivar GF677. In words: Callus formation of peach leaves on CIM. The class given is cell-based. How it is done:
(a) photos of peach cultivar GF677 grown on a CIM in the presence of 100 nM PpREF1 and in the absence of PpREF1 (mock). (b) callus formation capacity of peach cultivar […] grown on a CIM in the presence 100 nM PpREF1 and in the absence of PpREF1 (mock) after 24 days. Callus formation capacity was represented by the percentage of leaves explants with regenerated embryonic calli. Data are mean±SD of three independent experiments.
Leaves of peach cultivar GF677 were cultured on CIM containing indicated concentrations of PpREF1, and callus phenotype was scored at 24 days after incubation on CIM. Callus formation capacity was represented by the percentage of leaves explants with regenerated embryonic calli. Data are mean±SD of three independent experiments. Callus formation capacity was increased by 10-fold in peach cultivar GF677 leaves grown in the presence of 100 nM PpREF1 compared to leaves grown in the absence of PpREF1.

Assay [8] deals with Chinese Spring, Kn199 and JM22 wheat. Briefly: Shoot regeneration of wheat. The class given is cell-based. The procedure: (a) photos of Kn199 wheat grown in the presence of 0.01 nM or 1 nM TaREF1 or absence of TaREF1 (mock). (b) photos of Kn199 wheat grown in the presence of 0.01 nM or 1 nM TaREF1 or absence of TaREF1.
(§1) TaREF1 was also shown to increase the callus formation capacity of Chinese spring wheat when applied exogenously (FIG. 43) and JM22 wheat (FIG. 54).
Shoot regeneration frequency was established by calculating the average number of shoots, in the context of the present invention shoot regenerative capacity refers to the number of shoots per explant in each condition.

The next assay deals with wheat. In words: Root and shoot growth of wheat. The class given is in vivo. To be noted: 100 nM TaREF1 vs absence. The text has this:
(a) photos of wheat grown in the presence of 100 nm TaREF1, or in the absence of TaREF1 (mock). (b) primary root length in wheat grown in the presence of 100 nm TaREF1, or in the absence of TaREF1 (mock). (c) shoot length of wheat grown in the presence of 100 nm TaREF1, or in the absence of TaREF1 (mock).
The wheat SIPEP (REF1) orthologue (TaREF1) was investigated to establish whether REF1 can increase the regenerative capacity in wheat.

Assay [9] deals with Chinese Spring and JM22 wheat. In words: Callus formation of wheat immature embryos on CIM. The class given is cell-based. Particulars: exogenous TaREF1. The procedure: (a) photos of Chinese Spring wheat grown in the presence or 0 nM, 0.01 nM or 0.1 nM TaREF1. (b) immature embryos of Chinese Spring were cultured on CIM containing indicated concentrations of TaREF1, and callus phenotype was scored at 14 days after incubation on CIM. Callus formation capacity was represented by the percentage of immature embryo explants with regenerated embryonic calli. Data are mean±SD of three independent experiments.
as §1

“Also recorded” adds a separate entry of the source.

Regarding “LPMVSLFTPKRPGTSAGSGPQIN (listed as Gossypium arboreum) [GaREF1]”, the “relative callus area, concentration dependence” value in assay [1] (0.1-500 nM GaREF1) was “increasing as concentration of GaREF1 is increased”. In addition, in [1] (presence vs absence of GaREF1, 14 days), the “relative callus area / callus formation” value is given as “increased; also recorded: promotes callus formation”.
Turning to “TGRRRGRPPSRPGVGRGPPPENN (listed as Capsicum annuum) [CaREF1]”, in the assay with pepper roots, the root hair formation result is on record as “promotes root hair formation”. Also, in [2], the callus formation is “increased; also recorded: promotes callus formation”.
As to “DDSKPTGPGAPAEGSGGDGGAIH (listed as Oryza sativa) [OsREF1]”, in [3], the growth result was “promotes the growth”. Besides, the primary root length result in [3] is “significantly increased”. For the same sequence, the shoot regeneration result in [4] (9311 indica rice) is listed as “promotes shoot regeneration”; in assay [4] (Nipponbare Japonica rice), “promotes shoot regeneration”; in assay [4] (ZH11 Japonica rice) it was “promotes shoot regeneration”; in [5] (L-04, 10 nM OsREF1 vs mock), “promotes shoot regeneration”. In addition, the figures for the “shoot regeneration capacity, increase” value in assay [4] (9311 rice), in assay [4] (Nipponbare rice) and in [4] (ZH11 rice) were ~ 3.5 fold, ~ 4 fold and ~ 4 fold, respectively. The “shoot regeneration frequency, increase” value in assay [5] (L-04, 10 nM OsREF1 vs absence) is recorded as ~ 12.2 fold. Further, the “callus formation capacity, increase” value in the assay on mature seeds of ZH11 (ZH11, 1 nM OsREF1 vs absence) was ~ 2 fold; in the assay on mature seeds of ZH11 (ZH11, 10 nM OsREF1 vs absence), ~ 3 fold; in assay [6] (L-04, 1 nM OsREF1, 20 days) it was ~ 7.4 fold; in assay [6] (L-04, 10 nM OsREF1, 20 days) it was ~ 8.9 fold. The callus formation was “larger; also recorded: promotes callus formation” in the assay with mature seeds of ZH11 (ZH11 Japonica rice, presence vs absence of OsREF1) and “promotes callus formation” in assay [6] (L-04, 1 or 10 nM OsREF1 vs mock).
In the case of “KRPRITLRAARPEISTGSGAQTN (listed as Prunus persica) [PpREF1]”, the callus formation in [7] (GF677, 100 nM PpREF1 vs mock) is listed as “promotes callus formation”. For the same sequence, in assay [7] (GF677 leaves, 100 nM PpREF1 vs absence, 24 days), the “callus formation capacity, increase” value worked out at 10 fold.
As to “AVRRPRPPGNPREGRGGGGGSHN (listed as Triticum aestivum) [TaREF1]”, the shoot regeneration entry in assay [8] (Chinese Spring wheat), in [8] (JM22 wheat) and in [8] (Kn199 wheat) was “promotes shoot regeneration” in each case. In the assay with wheat, the root length result was “increased; also recorded: promotes root and shoot growth”. Also, the shoot length entry with wheat is “increased; also recorded: promotes root and shoot growth”. For the same sequence, the callus formation capacity is on record as “increase” in assay [9] (Chinese spring wheat) and “increase; also recorded: promotes callus formation” in [9] (JM22 wheat).
